Species: Rattus norvegicus
Assay: DrugMatrix - Regimen: Daily Repeat
Type: toxicity, organism-based, Sprague-Dawley
Parameters: regimen Daily Repeat, gender Male, age 6-8 weeks
Conditions: in vivo, po, route oral GAVAGE, vehicle .5 % CMC; for ABSOLUTE BASOPHIL / ABSOLUTE EOSINOPHIL / ABSOLUTE LYMPHOCYTE / ABSOLUTE MONOCYTE / ABSOLUTE SEGMENTED NEUTROPHIL / BASOPHIL / EOSINOPHIL / ERYTHROCYTE COUNT / HEMATOCRIT / HEMOGLOBIN / LEUKOCYTE COUNT / LYMPHOCYTE / MEAN CORPUSCULAR HEMOGLOBIN / MEAN CORPUSCULAR HEMOGLOBIN CONCENTRATION / MEAN CORPUSCULAR VOLUME / MONOCYTE / NEUTROPHIL / NUCLEATED RED BLOOD CELLS / PLATELET COUNT: tissue Blood; for ALANINE AMINOTRANSFERASE / ALBUMIN / ALKALINE PHOSPHATASE / ASPARTATE AMINOTRANSFERASE / BLOOD UREA NITROGEN / CARBON DIOXIDE / CHLORIDE / CHOLESTEROL / CREATINE PHOSPHOKINASE / CREATININE / GLUCOSE / LACTATE DEHYDROGENASE / LIPASE / PHOSPHORUS / POTASSIUM / SODIUM / TOTAL BILIRUBIN / TOTAL PROTEIN: tissue Plasma
[1] = 0 mg/kg, 72 h, dose level Control, time 3 day
[2] = 0 mg/kg, 120 h, dose level Control, time 5 day
[3] = 25 mg/kg, 72 h, dose level Low, time 3 day

SMILES: COc1cc(/C=C/C(=O)O)ccc1O [FERULATE]
- ABSOLUTE BASOPHIL [1]: 0 CELLS/uL
- ABSOLUTE EOSINOPHIL [1]: 284.5 CELLS/uL
- ABSOLUTE LYMPHOCYTE [1]: 11670.5 CELLS/uL
- ABSOLUTE MONOCYTE [1]: 420.83 CELLS/uL
- ABSOLUTE SEGMENTED NEUTROPHIL [1]: 1024.17 CELLS/uL
- BASOPHIL [1]: 0%
- EOSINOPHIL [1]: 1.67%
- ERYTHROCYTE COUNT [1]: 5.38 x10E6/uL
- HEMATOCRIT [1]: 34.05%
- HEMOGLOBIN [1]: 12.75 G/DL
- LEUKOCYTE COUNT [1]: 13.4 x10E3/uL
- LYMPHOCYTE [1]: 88.33%
- MEAN CORPUSCULAR HEMOGLOBIN [1]: 23.73 pg
- MEAN CORPUSCULAR HEMOGLOBIN CONCENTRATION [1]: 37.43 G/DL
- MEAN CORPUSCULAR VOLUME [1]: 63.4 fL
- MONOCYTE [1]: 2.83%
- NEUTROPHIL [1]: 7.17%
- NUCLEATED RED BLOOD CELLS [1]: 0 /100WBC
- PLATELET COUNT [1]: 1184.67 x10E3/uL
- ALANINE AMINOTRANSFERASE [1]: 45.33 u/L
- ALBUMIN [1]: 4.3 G/DL
- ALKALINE PHOSPHATASE [1]: 388.83 u/L
- ASPARTATE AMINOTRANSFERASE [1]: 84.83 u/L
- BLOOD UREA NITROGEN [1]: 15.5 mg/dL
- CARBON DIOXIDE [1]: 27 mmol/L
- CHLORIDE [1]: 101.8 MEQ/L
- CHOLESTEROL [1]: 76.67 mg/dL
- CREATINE PHOSPHOKINASE [1]: 301 u/L
- CREATININE [1]: 0.21 mg/dL
- GLUCOSE [1]: 168.83 mg/dL
- LACTATE DEHYDROGENASE [1]: 294.83 u/L
- LIPASE [1]: 9.8 u/L
- PHOSPHORUS [1]: 13.25 mg/dL
- POTASSIUM [1]: 6.41 MEQ/L
- SODIUM [1]: 143.72 MEQ/L
- TOTAL BILIRUBIN [1]: 0.22 mg/dL
- TOTAL PROTEIN [1]: 5.98 G/DL
- ABSOLUTE BASOPHIL [2]: 0 CELLS/uL
- ABSOLUTE EOSINOPHIL [2]: 190.67 CELLS/uL
- ABSOLUTE LYMPHOCYTE [2]: 12549.5 CELLS/uL
- ABSOLUTE MONOCYTE [2]: 276 CELLS/uL
- ABSOLUTE SEGMENTED NEUTROPHIL [2]: 1067.17 CELLS/uL
- BASOPHIL [2]: 0%
- EOSINOPHIL [2]: 1.33%
- ERYTHROCYTE COUNT [2]: 5.66 x10E6/uL
- HEMATOCRIT [2]: 35.92%
- HEMOGLOBIN [2]: 13.65 G/DL
- LEUKOCYTE COUNT [2]: 14.08 x10E3/uL
- LYMPHOCYTE [2]: 89%
- MEAN CORPUSCULAR HEMOGLOBIN [2]: 24.12 pg
- MEAN CORPUSCULAR HEMOGLOBIN CONCENTRATION [2]: 38.03 G/DL
- MEAN CORPUSCULAR VOLUME [2]: 63.47 fL
- MONOCYTE [2]: 2%
- NEUTROPHIL [2]: 7.67%
- NUCLEATED RED BLOOD CELLS [2]: 0.17 /100WBC
- PLATELET COUNT [2]: 1251.67 x10E3/uL
- ALANINE AMINOTRANSFERASE [2]: 43.33 u/L
- ALBUMIN [2]: 4.22 G/DL
- ALKALINE PHOSPHATASE [2]: 365.67 u/L
- ASPARTATE AMINOTRANSFERASE [2]: 83.67 u/L
- BLOOD UREA NITROGEN [2]: 18.17 mg/dL
- CARBON DIOXIDE [2]: 28.67 mmol/L
- CHLORIDE [2]: 103.5 MEQ/L
- CHOLESTEROL [2]: 71.5 mg/dL
- CREATINE PHOSPHOKINASE [2]: 284.5 u/L
- CREATININE [2]: 0.21 mg/dL
- GLUCOSE [2]: 161.67 mg/dL
- LACTATE DEHYDROGENASE [2]: 259.67 u/L
- LIPASE [2]: 9.5 u/L
- PHOSPHORUS [2]: 12.45 mg/dL
- POTASSIUM [2]: 6.49 MEQ/L
- SODIUM [2]: 144.25 MEQ/L
- TOTAL BILIRUBIN [2]: 0.2 mg/dL
- TOTAL PROTEIN [2]: 6.1 G/DL
- ABSOLUTE BASOPHIL [3]: 0 CELLS/uL
- ABSOLUTE EOSINOPHIL [3]: 47 CELLS/uL
- ABSOLUTE LYMPHOCYTE [3]: 6476.33 CELLS/uL
- ABSOLUTE MONOCYTE [3]: 108 CELLS/uL
- ABSOLUTE SEGMENTED NEUTROPHIL [3]: 402 CELLS/uL
- BASOPHIL [3]: 0%
- EOSINOPHIL [3]: 1%
- ERYTHROCYTE COUNT [3]: 5.55 x10E6/uL
- HEMATOCRIT [3]: 35.4%
- HEMOGLOBIN [3]: 13.17 G/DL
- LEUKOCYTE COUNT [3]: 7.03 x10E3/uL
- LYMPHOCYTE [3]: 91.67%
- MEAN CORPUSCULAR HEMOGLOBIN [3]: 23.73 pg
- MEAN CORPUSCULAR HEMOGLOBIN CONCENTRATION [3]: 37.2 G/DL
- MEAN CORPUSCULAR VOLUME [3]: 63.8 fL
- MONOCYTE [3]: 1.67%
- NEUTROPHIL [3]: 5.67%
- NUCLEATED RED BLOOD CELLS [3]: 0 /100WBC
- PLATELET COUNT [3]: 1224.33 x10E3/uL
- ALANINE AMINOTRANSFERASE [3]: 45.33 u/L
- ALBUMIN [3]: 4.27 G/DL
- ALKALINE PHOSPHATASE [3]: 484.33 u/L
- ASPARTATE AMINOTRANSFERASE [3]: 84.67 u/L
- BLOOD UREA NITROGEN [3]: 13.67 mg/dL
- CARBON DIOXIDE [3]: 28 mmol/L
- CHLORIDE [3]: 103 MEQ/L
- CHOLESTEROL [3]: 71 mg/dL
- CREATINE PHOSPHOKINASE [3]: 192.33 u/L
- CREATININE [3]: 0.18 mg/dL
- GLUCOSE [3]: 148.33 mg/dL
- LACTATE DEHYDROGENASE [3]: 120.67 u/L
- LIPASE [3]: 9.33 u/L
- PHOSPHORUS [3]: 12.27 mg/dL
- POTASSIUM [3]: 6.28 MEQ/L
- SODIUM [3]: 147.37 MEQ/L
- TOTAL BILIRUBIN [3]: 0.2 mg/dL

Reference: ChEMBL document CHEMBL3885881, “DrugMatrix”
